Key:
Assay in all cases: pre-steady-state half-reaction of the PLP form, aldimine decrease at […] nm
Assay type in all cases: biochemical
[1] = target: T1, TaTT (transaminase from Thermobaculum terrenum) (Thermobaculum terrenum, UniProt D1CCW1); conditions: 50 mM CHES pH 9.0, 40 °C; no amino acceptor; constant from kobs vs. substrate; read-out: pH 9.0, CHES buffer, 40°C / KD, / mM
T1 construct: gene ilvE; N-terminal His6TEV-tag, expressed in E. coli BL21(DE3)pLys; tag cut by TEV for crystals (309 visible residues, 5 N-terminal and 3 C-terminal residues invisible); functional dimer

[2] = target: T2, TaTT (transaminase from Thermobaculum terrenum) (Thermobaculum terrenum, UniProt D1CCW1, W31H/F38Y/G40V/R42S/Y100F); conditions: mP3O7; 50 mM Tris-HCl pH 8.0, 30 °C; no amino acceptor; constant from kobs vs. substrate; read-out: pH 8.0, Tris-HCl buffer, 30°C / KD, / mM
T2 construct: gene ilvE; N-terminal His6TEV-tag, expressed in E. coli BL21(DE3)pLys; tag cut by TEV for crystals (309 visible residues, 5 N-terminal and 3 C-terminal residues invisible); functional dimer

[3] = target: T3, TaTT (transaminase from Thermobaculum terrenum) (Thermobaculum terrenum, UniProt D1CCW1, G40V/R42S/Y100F/S114R); conditions: mP3O1; 50 mM CHES pH 9.0, 40 °C; no amino acceptor; constant from kobs vs. substrate; read-out: pH 9.0, CHES buffer, 40°C / KD, / mM
T3 construct: gene ilvE; N-terminal His6TEV-tag, expressed in E. coli BL21(DE3)pLys; tag cut by TEV for crystals (309 visible residues, 5 N-terminal and 3 C-terminal residues invisible); functional dimer

[4] = target: T4, TaTT (transaminase from Thermobaculum terrenum) (Thermobaculum terrenum, UniProt D1CCW1, S114R); conditions: mO1; 50 mM CHES pH 9.0, 40 °C; no amino acceptor; constant from kobs vs. substrate; read-out: pH 9.0, CHES buffer, 40°C / KD, / mM
T4 construct: gene ilvE; N-terminal His6TEV-tag, expressed in E. coli BL21(DE3)pLys; tag cut by TEV for crystals (309 visible residues, 5 N-terminal and 3 C-terminal residues invisible); functional dimer

[5] = target: T5, TaTT (transaminase from Thermobaculum terrenum) (Thermobaculum terrenum, UniProt D1CCW1, G40V/Y100F); conditions: mP2; 50 mM CHES pH 9.0, 40 °C; no amino acceptor; constant from kobs vs. substrate; read-out: pH 9.0, CHES buffer, 40°C / KD, / mM
T5 construct: gene ilvE; N-terminal His6TEV-tag, expressed in E. coli BL21(DE3)pLys; tag cut by TEV for crystals (309 visible residues, 5 N-terminal and 3 C-terminal residues invisible); functional dimer

[6] = target: T6, TaTT (transaminase from Thermobaculum terrenum) (Thermobaculum terrenum, UniProt D1CCW1, G40V/R42S/Y100F); conditions: mP3; 50 mM CHES pH 9.0, 40 °C; no amino acceptor; constant from kobs vs. substrate; read-out: pH 9.0, CHES buffer, 40°C / KD, / mM
T6 construct: gene ilvE; N-terminal His6TEV-tag, expressed in E. coli BL21(DE3)pLys; tag cut by TEV for crystals (309 visible residues, 5 N-terminal and 3 C-terminal residues invisible); functional dimer
T6 sequence (D1CCW1 entry or part of it G40V/R42S/Y100F): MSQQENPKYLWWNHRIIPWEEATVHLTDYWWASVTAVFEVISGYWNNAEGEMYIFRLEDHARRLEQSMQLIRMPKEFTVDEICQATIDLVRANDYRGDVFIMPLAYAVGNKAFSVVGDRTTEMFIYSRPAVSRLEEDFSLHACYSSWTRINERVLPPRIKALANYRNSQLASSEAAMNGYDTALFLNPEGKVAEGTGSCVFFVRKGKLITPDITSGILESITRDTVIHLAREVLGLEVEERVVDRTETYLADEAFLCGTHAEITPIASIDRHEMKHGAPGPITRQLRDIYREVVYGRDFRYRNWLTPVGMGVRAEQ

T5 sequence (D1CCW1 entry or part of it G40V/Y100F): as the sequence (D1CCW1 entry or part of it G40V/R42S/Y100F) above, with S42R counted along it
T4 sequence (D1CCW1 entry or part of it S114R): as the sequence (D1CCW1 entry or part of it G40V/R42S/Y100F) above, with V40G, S42R, F100Y, S114R counted along it
T3 sequence (D1CCW1 entry or part of it G40V/R42S/Y100F/S114R): as the sequence (D1CCW1 entry or part of it G40V/R42S/Y100F) above, with S114R counted along it
T2 sequence (D1CCW1 entry or part of it W31H/F38Y/G40V/R42S/Y100F): as the sequence (D1CCW1 entry or part of it G40V/R42S/Y100F) above, with W31H, F38Y counted along it
T1 sequence (D1CCW1 entry or part of it): as the sequence (D1CCW1 entry or part of it G40V/R42S/Y100F) above, with V40G, S42R, F100Y counted along it

## C[C@@H](N)c1ccccc1 [R-PEA, (R)-(+)-1-phenylethylamine]
[1]
  Kd: 81 ± 8 mM
[2]
  Kd: 44 ± 8 mM
[3]
  Kd: 1.5 ± 0.5 mM
[4]
  Kd: 3.3 ± 1.2 mM
[5]
  Kd: 13 ± 2 mM
[6]
  Kd: 2.6 ± 0.4 mM
